Experimental data as given in patent publication US20060128729A1, “Novel bicyclic heterocyclic compounds, process for their preparation and compositions containing them” (priority 2004, published 2006).
Where a name gives a salt, the structure may show the parent alone.

Assays:
[1] = tested on: MCP-1 (monocyte chemoattractant protein 1); assay: MCP-1 ELISA on supernatants of stimulated human aortic endothelial cells; type: cell-based; settings: Homo sapiens, Endothelial cell, HAECs treated with TNFα (0.05 ng/ml) or glycated human serum albumin (300 μg/ml) for 18-24 h; read-out: IC50 in MCP-1 enzyme-linked immunosorbent assay
Procedure: (§1) For inflammation assays, human aortic endothelial cells (HAECS) in 96 well plates were washed once with treatment medium (basal medium containing 1% FBS). Cells were treated with an inflammatory agent such as TNFα (0.05 ng/ml) or glycated human serum albumin (US Biologicals) as source of advanced glycation end products (AGEs) (300 μg/ml) for 18-24 h in the presence or absence of specified amount of compound. Cell supernatants were collected and used for the estimation of MCP-1 (monocyte chemoattractant protein 1) or IL-6 (interleukin-6) by ELISA. Cell layers were washed and used for determining the levels of vascular cell adhesion molecule-1 (VCAM-1).
MCP-1 ELISA was carried out using Quantikine Human MCP-1 kit as described by the manufacturer (R&D Systems, Inc.). Mouse anti-human MCP-1 was used as the capture antibody and HRP (horse radish peroxidase)-conjugated goat anti-human MCP-1 antibody was used as detection antibody. Culture medium was incubated with the capture antibody (in 96-well plate) for 2 h at room temperature. Wells were washed three times with wash buffer (0.05% Tween-20 in PBS) followed by incubation with detection antibody for 2 h at room temperature. Color development was read at […] in a microplate reader.

[2] = tested on: human aortic smooth muscle cells; assay: Smooth muscle cell proliferation assay (radiolabeled thymidine incorporation or CellTiter AQ); type: cell-based; settings: human aortic SMC; for IC50: 24 h post treatment in serum-containing growth medium, read-out: Activity: concentration giving 50% inhibition of smooth muscle cell proliferation
Procedure: Primary cultures of human aortic smooth muscle cells were obtained from Clonetics. SMC were initially grown in T-75 flasks prior to seeding in 96 well plates. The 96-well plates were seeded with 4000 cells/well. The following day cells were washed with serum free medium and left in serum free media for 24 hours for serum starvation. The next day cells received growth medium containing serum with or without compound. 24 h post treatment cell proliferation was assayed either assessing the incorporation of radiolabeled thymidine to DNA or using a non-radioactive cell proliferation kit from Promega (CellTiter AQ).

[3] = tested on: VCAM-1 (vascular cell adhesion molecule-1); assay: VCAM-1 ELISA on cell layers of stimulated human aortic endothelial cells; type: cell-based; settings: Homo sapiens, Endothelial cell, HAECs treated with TNFα (0.05 ng/ml) or glycated human serum albumin (300 μg/ml) for 18-24 h; read-out: IC50 in VCAM-1 enzyme-linked immunosorbent assay
Procedure: as §1
The cells were fixed cells with 100% methanol for 10 min at room temperature. The methanol was removed and the plate was air-dried. 100 ul of 1:1000 diluted primary antibody (polyclonal goat anti-human VCAM-1—R&D Systems #BBA19) was then added and incubated for 2 h at 37 C. The cells were washed with PBS and 100 ul of 1:5000 dilution of secondary antibody (rabbit anti-goat IgG-HRP—Zymed #81-1620) was added and incubated for 1 h at room temperature. Cells were washed and 100 ul of substrate solution (R&D Systems# DY999) was added and incubated for 20 min in the dark at room temp. 50 μl of stop solution (2N sulfuric acid) was added to the wells and absorbency at 450 nm was noted.

[4] = tested on: IL-6 (interleukin-6); assay: IL-6 ELISA on media of stimulated human aortic endothelial cells; type: cell-based; settings: Endothelial cell; HAECs treated with TNFα (0.05 ng/ml) or glycated human serum albumin (300 μg/ml) for 18-24 h; read-out: IC50 in IL-6 enzyme-linked immunosorbent assay
Procedure: as §1
IL-6 levels in endothelial cell media were determined using DuaSet IL-6 ELISA kit from R&D Systems (Cat No DY206) as described by the manufacturer. Mouse anti-human IL-6 antibody was used as the capture antibody and biotinylated goat anti-human IL-6 was used as detection antibody. Culture medium was incubated with the capture antibody (in 96-well plate) for 2 h at room temperature. Wells were washed three times with wash buffer (0.05% Tween-20 in PBS) followed by incubation with detection antibody for 2 h at room temperature. The wells were then incubated with streptavidin HRP and color development was read at 450 nm in a microplate reader.

SMILES	melting point	IC50 [1]	inhibition at 5 µM ([2]; at 5 μM, 24 h post treatment)	IC50 [3]	IC50 [4]	IC50 [2]
CCCc1nn(C)c2c(Nc3ccc(OC)c(F)c3)nc(-c3ccccc3)nc12.Cl [E 28, (3-fluoro-4-methoxy-phenyl)-(1-methyl-5-phenyl-3-propyl-1H-pyrazolo[4,3-d]pyrimidin-7-yl)-amine hydrochloride]	248 to 250 °C	7.5 µM	70%	8.4 µM		
CCCc1nn(C)c2c(Nc3ccc(OC)c(Cl)c3)nc(-c3ccc(F)cc3)nc12.Cl [E 2, (3-chloro-4-methoxy-phenyl)-[5-(4-fluoro-phenyl)-1-methyl-3-propyl-1H-pyrazolo[4,3-d]pyrimidin-7-yl]-amine-hydrochloride]	253.65 °C	13.4 µM		10.4 µM	9 µM	1.62 µM
Cl.Fc1ccc(-c2nc(Nc3ccc(Cl)c(C(F)(F)F)c3)c3cnn(-c4ccccc4)c3n2)cc1 [E 81, (4-chloro-3-trifluoromethyl-phenyl)-[6-(4-fluoro-phenyl)-1-phenyl-1H-pyrazolo[3,4-d]pyrimidin-4-yl]-amine hydrochloride]	203.83 °C	5.2 µM		8.9 µM		3.9 µM
CCCc1nn(C)c2c(Nc3ccc(OC)c(Cl)c3)nc(-c3ccccc3)nc12.Cl [E 27, (3-chloro-4-methoxy-phenyl)-(1-methyl-5-phenyl-3-propyl-1H-pyrazolo[4,3-d]pyrimidin-7-yl)-amine hydrochloride]	238 to 240 °C	5.7 µM		8.4 µM	9.6 µM	1.28 µM
CCCc1nn(C)c2c(Nc3ccc(OC)c(F)c3)nc(-c3ccc(F)cc3)nc12 [E 1, (3-fluoro-4-methoxy-phenyl)-[5-(4-fluoro-phenyl)-1-methyl-3-propyl-1H-pyrazolo[4,3-d]pyrimidin-7-yl]-amine hydrochloride]		7.2 µM		11.8 µM	5.4 µM	0.89 µM
CCCc1nn(C)c2c(Nc3ccc4c(c3)OCO4)nc(-c3ccc(F)cc3)nc12.Cl [E 8, benzo[1,3]dioxol-5-yl-[5-(4-fluoro-phenyl)-1-methyl-3-propyl-1H-pyrazolo[4,3-d]pyrimidin-7-yl]-amine-hydrochloride]	< 260 °C	8.7 µM		12.4 µM		1 µM
